Legend:
[1] = tested on: HEK293 CriptoFC 1B8 cell line; assay: Cripto-FC expression by flow cytometry, concentration response; type: cell-based; settings: Homo sapiens, Cripto-FC model protein, 10 point concentration response, top concentration 6 μM, read-out: pAC50 for Improved Protein Expression, Cripto-FC (converted)
Description: Human Embryonic Kidney (HEK) cells, Expi293F cell line, were co-transfected using Expifectamine with vectors for targeted integration of one of three model proteins, Cripto-Fc, PLAP and hGFRα2, and a vector expressing Zinc Finger Nucelases that target the AAVS1 locus in the genome. As shown below in Table 3, Cripto-Fc served as a high volume expressing protein, PLAP a medium expressing protein, and hGFRα2 as a low expressing protein. After 48 hours, selection with puromycin blasticidin were applied to enrich for cells with the vectors integrated. After 14 days, cells were sorted by flow cytometry as single cells in 96 well plates. After single colonies were isolated the cells were expanded and analyzed to determine the gene copy number of the recombinant target gene in each clone. […]
To confirm hits from the primary screen, the available positive hits were subjected to the counter screening without addition of antibody-conjugates to remove flourescent compounds. In parallel, a 10 point concentration response curve with a top concentration of 6 μM for each of the compounds was determined. Only compounds that lacked inherent fluorescence, and increased protein expression with at least 30% in a dose-dependent mariner were counted as confirmed hits. […]

[2] = tested on: HEK293 PLAP cell line; assay: PLAP expression by secreted enzymatic activity (p-Nitrophenyl phosphate, 405 nm); type: cell-based; settings: Homo sapiens, PLAP model protein, enzymatic activity readout, read-out: pAC50 for Improved Protein Expression, PLAP (converted)
Description: An additional study was performed on different cells expressing GRFα2 and PLAP. The same assay performed on HEk293 CriptoFC 1B8 was performed on a cell line containing a single gene copy of GFRA2. […] The activity measurement for PLAP is based on the degradation of p-Nitrophenyl phosphate to p-Nitrophenyl which can be followed as an increase in absorbance at 405 nm.

[3] = molecular target: T1, ULK1 (Homo sapiens, UniProt O75385); settings: cited from earlier work
T1 sequence (O75385 1-1050): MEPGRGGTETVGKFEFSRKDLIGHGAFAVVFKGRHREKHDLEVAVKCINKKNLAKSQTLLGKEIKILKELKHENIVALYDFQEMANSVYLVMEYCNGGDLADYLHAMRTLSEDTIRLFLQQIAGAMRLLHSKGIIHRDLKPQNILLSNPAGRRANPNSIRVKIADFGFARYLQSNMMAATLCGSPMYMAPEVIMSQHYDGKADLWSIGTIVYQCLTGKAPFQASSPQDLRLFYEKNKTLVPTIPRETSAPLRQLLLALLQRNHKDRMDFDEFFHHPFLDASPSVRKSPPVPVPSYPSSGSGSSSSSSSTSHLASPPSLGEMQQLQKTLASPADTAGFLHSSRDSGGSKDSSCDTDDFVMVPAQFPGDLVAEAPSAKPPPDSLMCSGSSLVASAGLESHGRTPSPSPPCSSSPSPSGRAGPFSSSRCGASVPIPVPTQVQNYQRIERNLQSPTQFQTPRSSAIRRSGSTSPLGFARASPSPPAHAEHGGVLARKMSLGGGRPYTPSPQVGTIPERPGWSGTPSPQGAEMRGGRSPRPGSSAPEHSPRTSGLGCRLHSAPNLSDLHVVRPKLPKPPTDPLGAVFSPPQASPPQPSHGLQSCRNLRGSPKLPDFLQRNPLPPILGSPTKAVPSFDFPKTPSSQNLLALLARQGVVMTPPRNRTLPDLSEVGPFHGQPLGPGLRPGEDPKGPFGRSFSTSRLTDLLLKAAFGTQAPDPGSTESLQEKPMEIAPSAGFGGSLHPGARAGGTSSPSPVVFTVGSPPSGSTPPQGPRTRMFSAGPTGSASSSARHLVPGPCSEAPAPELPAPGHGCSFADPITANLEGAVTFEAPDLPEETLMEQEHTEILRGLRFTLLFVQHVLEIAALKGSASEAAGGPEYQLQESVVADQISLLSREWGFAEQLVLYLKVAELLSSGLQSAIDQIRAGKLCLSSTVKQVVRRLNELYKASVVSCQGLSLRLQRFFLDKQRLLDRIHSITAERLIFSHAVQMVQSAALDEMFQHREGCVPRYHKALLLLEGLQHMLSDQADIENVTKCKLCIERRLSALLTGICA

For CN1CCc2cc(Nc3ncc(C4CC4)c(NCCCNC(=O)C4CCC4)n3)ccc2C1 [MRT68921], the AC50 [1] is listed as 79.4 nM, the AC50 [2] is listed as 60.3 nM and the IC50 [3] is listed as roughly 2.9 nM.
